From patent US20170362283A1, “NISIN-BASED COMPOUNDS AND USE THEREOF IN THE TREATMENT OF BACTERIAL INFECTIONS” (UNIVERSITEIT UTRECHT HOLDING B.V., priority 2015, published 2017)
In brackets after ≈: the same amount, converted by molar mass. Read-outs that look alike come from different tables or passages of the source.

Experiments:
VRE 155 = type: cell-based
Procedure: (§1) Determining the MIC value is a standard technique well known to the skilled person, in particular the MIC value can be measured using method M07-A9 (CLSI standard, January 2012, Vol. 32, No. 2, “Methods for Dilution Antimicrobial Susceptibility Tests for Bacteria That Grow Aerobically”).
(§2) Different microorganisms (from glycerol stock) were plated out on blood agar and incubated at 37° C. for 24 hours. A colony was selected and 2×5 mL of TSB was inoculated. The samples and a sterile control were cultured for 16-20 hours at 37° C. Comparative compound B is nisin acting as a control. Comparative compound C is vancomycin, also acting as a control. Comparative compounds A, D and E are also control compounds not part of the present invention.
(§3) The overnight cultures were diluted to 0.5×10^6 CFU in TSB. 50 μL of the bacterial solution was added to each well and the plates were sealed with an adhesive membrane and incubated at 37° C. for 16 hours. The next day, the plates were visually inspected for bacterial growth.

MRSA USA300 = type: cell-based, Staphylococcus aureus
Procedure: as §1, §2, §3

erythrocytes = assay: Hemolysis assay; settings: human erythrocytes, 1 h, up to the highest concentration tested (64 μg/mL)
Procedure: Human whole blood was centrifuged at 600×g for 15 min and levels of plasma and hematocrit were marked on the tube. Plasma was removed and the erythrocytes washed 3× with PBS (centrifuging at 600×g for 15 mins). After discarding the supernatant, the packed cells were stored on ice. 100 μL of the peptides (128 μg/mL in PBS, 2% DMSO) as well as a control solution comprised of 2% DMSO in PBS were added to the top row of a polypropylene, round-bottom 96 well plate and 50 μL of PBS to the rest of the wells. The peptides and the DMSO control solutions were then diluted serially down the rows. 200 μL of the packed cells were added to PBS (10 mL) and 50 μL of this suspension was added to each well. A column with DI water containing 0.1% Triton X-100 was used as the 100% lysis control, and the column containing the serially-diluted PBS (1.0% DMSO) control served as the 0% lysis reference. The cells were incubated at 37° C. for 1 h. After incubation the plates were centrifuged (800×g, 5 min) and 25 μL of the supernatant was added to 100 μL DI water in a flat-bottom plate (polystyrene). The absorption at 414 nm was recorded to measure the amount of free hemoglobin.

B. subtilis = system: B. subtilis
Procedure: as §1
as §2, with “Comparative compound C is vancomycin, also acting as a control.” left out
as §3

E. coli = system: E. coli
Procedure: as §1
as §2, with “Comparative compound C is vancomycin, also acting as a control.” left out
as §3

S. aureus = system: S. aureus
Procedure: as §1
as §2, with “Comparative compound C is vancomycin, also acting as a control.” left out
as §3

M. luteus = type: cell-based
Procedure: as §1, §2, §3

MRSA WKZ2 = type: cell-based, Staphylococcus aureus
Procedure: as §1, §2, §3

SMILES | MIC values VRE 155 (VRE 155; duplicate experiments) [µg/mL] | MIC values MRSA USA300 (MRSA USA300; duplicate experiments) [µg/mL] | MIC values B. subtilis (B. subtilis) [µg/mL] | MIC values E. coli (E. coli) [µg/mL] | MIC values S. aureus (S. aureus) [µg/mL] | MIC values M. luteus (M. luteus) [µg/mL] | other results
C=C1NC(=O)[C@H]([C@@H](C)CC)NC(=O)[C@H](NC(=O)C(=CC)NC(=O)[C@@H](N)[C@@H](C)CC)CSC[C@@H](C(=O)N[C@H]2C(=O)N3CCC[C@H]3C(=O)NCC(=O)N[C@H](C(=O)N[C@@H](CCCCNC(C)=O)C(=O)NCCCCCCCCCCCC)CS[C@H]2C)NC(=O)[C@H](CC(C)C)NC1=O [Compound (20)] | 4 (≈ 2.94 µM) | >64 | – | – | – | – | hemolysis (erythrocytes): no detectable hemolysis
C=C1NC(=O)[C@H]([C@@H](C)CC)NC(=O)[C@H](NC(=O)C(=CC)NC(=O)[C@@H](N)[C@@H](C)CC)CSC[C@@H](C(=O)N[C@H]2C(=O)N3CCC[C@H]3C(=O)NCC(=O)N[C@H](C(=O)N[C@@H](CCCCN)C(=O)NCCCn3cc(CCC(=O)N(CCCCCCCCCC)CCCCCCCCCC)nn3)CS[C@H]2C)NC(=O)[C@H](CC(C)C)NC1=O [Compound (24) with R1-group (b)] | – | – | >64 | >64 | >64 | 8 (≈ 4.97 µM) | –
C=C1NC(=O)[C@H]([C@@H](C)CC)NC(=O)[C@H](NC(=O)C(=CC)NC(=O)[C@@H](N)[C@@H](C)CC)CSC[C@@H](C(=O)N[C@H]2C(=O)N3CCC[C@H]3C(=O)NCC(=O)N[C@H](C(=O)N[C@@H](CCCCN)C(=O)NCCCn3cc(CCC(=O)NC/C=C(\C)CC/C=C(\C)CCC=C(C)C)nn3)CS[C@H]2C)NC(=O)[C@H](CC(C)C)NC1=O [Compound (24) with R1-group (d)] | – | – | 32 (≈ 20.9 µM) | >64 | 64 (≈ 41.7 µM) | 2 to 4 | –
C=C1NC(=O)[C@H]([C@@H](C)CC)NC(=O)[C@H](NC(=O)C(=CC)NC(=O)[C@@H](N)[C@@H](C)CC)CSC[C@@H](C(=O)N[C@H]2C(=O)N3CCC[C@H]3C(=O)NCC(=O)N[C@H](C(=O)N[C@@H](CCCCN)C(=O)NCCCn3cc(CNC(=O)c4ccc(-c5ccc(-c6ccccc6)cc5)cc4)nn3)CS[C@H]2C)NC(=O)[C@H](CC(C)C)NC1=O [Compound (24) with R1-group (e)] | – | – | 4 (≈ 2.59 µM) | >64 | 8 (≈ 5.18 µM) | 2 (≈ 1.3 µM) | MIC values VRE 155 (VRE 155): 8 µg/mL (≈ 5.18 µM); MIC values MRSA USA300 (MRSA USA300; USA300): 8 µg/mL (≈ 5.18 µM); MIC values MRSA WKZ2 (MRSA WKZ2; WKZ2): 8 µg/mL (≈ 5.18 µM)
C=C1NC(=O)[C@H]([C@@H](C)CC)NC(=O)[C@H](NC(=O)C(=CC)NC(=O)[C@@H](N)[C@@H](C)CC)CSC[C@@H](C(=O)N[C@H]2C(=O)N3CCC[C@H]3C(=O)NCC(=O)N[C@H](C(=O)N[C@@H](CCCCN)C(=O)O)CS[C@H]2C)NC(=O)[C@H](CC(C)C)NC1=O [Compound A, nisin [1-12], reference compound] | >128 | >128 | – | – | – | – | MIC values B. subtilis (B. subtilis; duplicate experiments): >128 µg/mL; MIC values E. coli (E. coli; duplicate experiments): >128 µg/mL; MIC values S. aureus (S. aureus; duplicate experiments): >128 µg/mL; MIC values M. luteus (M. luteus; duplicate experiments): 8 to 16 µg/mL; MIC values MRSA WKZ2 (MRSA WKZ2; duplicate experiments): >128 µg/mL
